Our source for the IC50 and Ki values is PMC11909086, “Synthesis and characterization of novel bis(thiosemicarbazone) complexes and investigation of their acetylcholinesterase and glutathione S-transferase activities with in silico and in vitro studies” (Molecular Diversity, 2024).

SMILES strings stand for the structures.

For experiment [1], the target named is T1, GST (glutathione S-transferase).
T1 construct: PDB 7BIB is only the docking model
Briefly: CDNB-GSH conjugation, […] nm (Habig). The experiment is classed as biochemical. Particulars: CDNB and GSH, phosphate pH […].

For experiment [2] the target is unchanged. Briefly: CDNB-GSH conjugation, […] nm, Lineweaver–Burk. Format: biochemical. Particulars: CDNB and GSH, phosphate pH […].

Usually IC50 stands for the concentration that gives 50% inhibition. The term Ki denotes a measure of affinity in units of concentration, obtained from inhibition or displacement. A high value points to weaker binding. In experiment [1], `C=C(CC)C(=O)c1ccc(OCC(=O)O)c(Cl)c1Cl` [Ethacrynic acid, reference compound] gave an IC50 of 0.374 µM. In addition, in experiment [2], affinity was put at a Ki of 9.39 ± 3.3 µM.

In turn, `COc1ccc(NN=C2C(=NNC(N)=S)CCCC2=NNC(N)=S)cc1` [L, 2,2′-(2-(2-(4-methoxyphenyl)hydrazineylidene)cyclohexane-1,3-diylidene)bis(hydrazine-1-carbothioamide)] showed an IC50 in experiment [1] of 2.19 µM. The affinity in experiment [2], expressed as Ki, was 11.7 ± 5.45 µM.
